Reference: patent publication US9938222B2 (BRISTOL-MYERS SQUIBB COMPANY, priority 2014, dated 2018)

Key:
[1] = molecular target: human GPR120 (Homo sapiens (Human), UniProt Q5NUL3); assay: GPR120 pERK AlphaScreen SureFire Assay (human GPR120 pERK assay); assay type: cell-based; conditions: CHO cells stably transfected with short form of human GPR120
How it was run: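 CHOA12 cells stably expressing short-form human GPR120, serum-starved 2 h, then stimulated 7 min at 37° C with compound (33.33 μM to 0.56 nM, 11-point). Phospho-ERK1/2 read by AlphaScreen SureFire in lysates. Activation scaled between DMSO and 50 μM linolenic acid; EC50 from a 4-parameter logistic fit.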

[2] = test system: C57BL/6 mice; assay: Acute Oral Glucose Tolerance Test; assay type: in vivo; conditions: dosed at 30 mg/kg orally 60 min before glucose challenge (2 g/kg), AUC t=0-120 min compared to vehicle
Procedure: In Vivo GPR120 Assays 1) Acute Oral Glucose Tolerance Test
C57BL/6 mice were housed individually and fed a standard rodent chow diet. At approximately 11 weeks age, after a 5 h fast, these mice were orally treated with vehicle or test compounds 60 min before a glucose challenge (2 g/kg). Blood glucose levels were determined from tail bleeds taken at −60, 0, 15, 30, 60 and 120 min after the glucose challenge. […] This AUC for compound treatment is compared to vehicle treatment.

Sequence of human GPR120 (Q5NUL3 whole entry): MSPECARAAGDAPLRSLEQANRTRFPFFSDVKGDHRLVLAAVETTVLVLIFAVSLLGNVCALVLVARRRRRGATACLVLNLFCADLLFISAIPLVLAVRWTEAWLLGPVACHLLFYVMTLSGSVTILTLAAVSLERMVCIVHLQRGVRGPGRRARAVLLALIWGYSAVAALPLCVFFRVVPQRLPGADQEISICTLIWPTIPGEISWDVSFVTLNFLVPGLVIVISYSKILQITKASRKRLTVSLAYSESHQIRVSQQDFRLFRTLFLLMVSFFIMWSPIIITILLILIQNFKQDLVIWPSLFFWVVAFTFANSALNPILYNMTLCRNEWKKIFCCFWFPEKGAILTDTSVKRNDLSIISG

| SMILES | EC50 [1] [nM] | reduced glucose AUC [2] [%] |
| --- | --- | --- |
| O=C(O)[C@H]1C[C@@H]1COc1ccc(-c2cc(Oc3cccc(F)c3)cc(F)c2F)cc1F (single isomer, unassigned) [Example 105] | 140 | 55 |
| CC(C)Oc1ccc(F)c(-c2ccc(OC[C@@H]3C[C@H]3C(=O)O)c(C=O)c2)c1 (racemic) [Example 87, Trans-2-(((2′-fluoro-3-formyl-5′-isopropoxy-[1,1′-biphenyl]-4-yl)oxy)methyl) cyclopropanecarboxylic acid] | 1760 |  |
| O=C(O)[C@@H]1C[C@H]1CCc1ccc(-c2cccc(-n3cccn3)c2)cc1 (racemic) [Example 128, Trans-2-(2-(3′-(1H-pyrazol-1-yl)-[1,1′-biphenyl]-4-yl)ethyl) cyclopropanecarboxylic acid] | 700 |  |
| CC(C)Oc1ccc(F)c(-c2ccc(OC[C@@H]3C[C@H]3C(=O)O)c(CC=O)c2)c1 (racemic) [Example 90, Trans-2-(((2′-fluoro-5′-isopropoxy-3-(2-oxoethyl)-[1,1′-biphenyl]-4-yl)oxy)methyl) cyclopropanecarboxylic acid] | 930 |  |
| Cc1nc(-c2ccccc2)c(-c2ccc(CC[C@@H]3C[C@H]3C(=O)O)cc2)s1 (single isomer, unassigned) [Example 27, Trans-2-(4-(2-methyl-4-phenylthiazol-5-yl)phenethyl)cyclopropanecarboxylic acid] | 1230 |  |

Now from value to compound, other results behind:

| EC50 [1] [nM] | SMILES | reduced glucose AUC [2] [%] |
| --- | --- | --- |
| 310 | O=C(O)[C@@H]1C[C@H]1COc1ccc(-c2cc(Oc3ccc(F)c(F)c3)ccc2F)cc1 (racemic) [Example 91, Trans-2-(((5′-(3,4-difluorophenoxy)-2′-fluoro-[1,1′-biphenyl]-4-yl)oxy)methyl) cyclopropanecarboxylic acid] |  |
| 510 | CC(C)Oc1ccc(Cl)c(-c2ccc(OC[C@@H]3C[C@H]3C(=O)O)cc2)c1 (racemic) [Example 119, Trans-2-(((2′-chloro-5′-isopropoxy-[1,1′-biphenyl]-4-yl)oxy)methyl) cyclopropanecarboxylic acid] |  |
| 160 | O=C(O)[C@H]1C[C@@H]1COc1ccc(-c2cc(Oc3ccccc3)ccc2F)cc1F (single isomer, unassigned) [Example 11] |  |
| 4960 | Cc1cc(-c2ccc(OC[C@@H]3C[C@H]3C(=O)O)cc2)n(-c2ccc(Cl)cc2)n1 (racemic) [Example 82, Trans-2-((4-(1-(4-chlorophenyl)-3-methyl-1H-pyrazol-5-yl)phenoxy)methyl) cyclopropanecarboxylic acid] |  |
| 680 | O=C(O)[C@@H]1C[C@H]1COc1ccc(-c2cc(C(F)(F)F)ccc2F)cc1 (racemic) [Example 123, Trans-2-(((2′-fluoro-5′-(trifluoromethyl)-[1,1′-biphenyl]-4-yl)oxy)methyl)cyclopropanecarboxylic acid] |  |
| 210 | O=C(O)[C@@H]1CC1COc1ccc(-c2cc(Oc3cccc(F)c3)cnc2Cl)cc1 (stereo partly shown) [Example 112] |  |
| 190 | Cc1ccc(Oc2ccc(F)c(-c3ccc(OCC4C[C@H]4C(=O)O)cc3)c2)cn1 (stereo partly shown) [Example 115] |  |
